# From patent US20110081674A1, “CONTINUOUS-FLOW DEFORMABILITY-BASED CELL SEPARATION” (priority 2009, published 2011)
# Test system: red blood cells (RBCs)
# Experiment: Deformability and mobility of glutaraldehyde-treated red blood cells at slits of the microfluidic device
# Format: cell-based
# Text: FIG. 4 illustrates embodiments of: A. red blood cells (RBCs) aligned at the entrance of a 1 μm slit under a pressure difference of 40 kPa. […] Because the surface-area to volume ratio of RBCs is constrained, they are unable to pass through slits less than a certain gap width apart. B. RBCs treated with 0.1% Glutaraldehyde (GA) maintain their biconcave structure at the entrance of 2 μm slits under a pressure difference of 40 kPa. Glutaraldehyde cross-links proteins in the membrane and in the cytosol of RBCs, making them stiffer. […] C. Mobility vs. GA concentration. […] The slit gap is the vertical gap that defines the spacing between the two substrates at the trenches area. These are the shallow regions of a unit of the sorter.
# With reference to FIG. 4A, a solution of PBS 1× and 0.2% w/v Pluronic F108 (a surfactant) and Bovine Serum Albumin 1% w/v (another surfactant) was prepared. The device was filled with this solution by applying pressure to one of the reservoirs. 1 μL of whole blood was mixed with 100 μL of this solution. The mixture was injected into the entrance reservoir of the device shown by using a syringe. The pressure difference between the two reservoirs was 40 kPa and was generated by using a pressure regulator. The cell concentration was approximately 0.5% hematocrit. Mobility was measured by tracking individual cells over a distance of 100 μm.
smiles,measurement,setting,value
O=CCCCC=O [Glutaraldehyde],Ability of treated RBCs to deform and pass through slits,"RBCs treated with 0.1% Glutaraldehyde, 2 μm slits, pressure difference 40 kPa",unable to pass through 2 μm slits
same,Mobility vs. GA concentration,"higher GA concentration, given ambient fluid velocity",decreased mobility
